Among the data in paper PMC11743672, “Characterization of the ligand-binding properties of odorant-binding protein 38 from Riptortus pedestris when interacting with soybean volatiles” (Frontiers in Physiology, 2025) are IC50 and Ki values, retold here.

Where two headings read alike, the source gives them in different places. Bounds are passed on as bounds.

This assay has as its target RpedOBP38 (Riptortus pedestris, UniProt A0A2Z4HQ26). In words: Fluorescence competitive binding assay (1-NPN displacement). The settings on record: for IC50: 2 μM recombinant RpedOBP38 and 1-NPN, PBS pH 7.4, three replicates. From the text: Recombinant RpedOBP38 binding to putative chemical ligands was characterized with a microplate reader (BioTek Synergy H1, United States). Fluorescence intensity values at the excitation wavelength of 337 nm and a maximum fluorescence emission wavelength of 450 nm were plotted against the free concentration of ligand for the measurement of dissociation constants, selecting candidate ligands from among 36 volatile compounds that included 11 green leaf volatiles ([Chen et al., 2018]; [Guo and Wang, 2019]; [Cheng et al., 2020]; [Hong et al., 2022]; [Tang et al., 2023]; [Zhu et al., 2023]), 11 soybean volatiles ([Wang et al., 2019a]; [Zhu et al., 2022]), 10 repellent activity volatiles ([Zhang et al., 2013]; [Zhang et al., 2014]), and 4 aggregation pheromone compounds ([Leal et al., 1995]; [Yasuda et al., 2007]). HPLC-grade methanol was used for the dissolution of the probe N-phenyl-1-naphthylamine (1-NPN) and all ligands. The ability of RpedOBP38 to bind 1-NPN was assessed by using 10 mM PBS (pH 7.4) to prepare a 2 μM purified protein solution, titrating with 1 mM 1-NPN in methanol to prepare final concentrations from 2–20 μM. RpedOBP38 binding to each ligand was evaluated in a solution consisting of 2 μM purified protein and 1-NPN, followed by titration through the addition of ligands until no further decrease in the fluorescence intensity was observed. Ligands were independently replicated three times, and dissociation constants for each ligand were measured as follows: Ki = [IC50]/(1 + [1-NPN]/K1-NPN), where IC50 denotes the ligand concentration when the fluorescence intensity is half of the initial value [1-NPN] is the free 1-NPN concentration, and K1-NPN is the dissociation constant for the RpedOBP38/1-NPN complex ([Campanacci et al., 2001]).

The mark [1] stands for this setting: Ki = [IC50]/(1 + [1-NPN]/K1-NPN), 2 μM protein and 1-NPN, Ki > 40 considered weak binding.
Where [2] appears, read: values as quoted in running text.

Chain of RpedOBP38 (A0A2Z4HQ26 entry or part of it): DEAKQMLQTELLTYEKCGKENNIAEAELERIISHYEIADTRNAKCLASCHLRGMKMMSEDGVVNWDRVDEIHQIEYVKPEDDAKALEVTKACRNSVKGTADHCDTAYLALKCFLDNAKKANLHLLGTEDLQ

For the compound `CCCCCCCCCCCCCCOC(=O)C(C)C` [myristyl isobutyrate], the concentration for half-maximal inhibition (IC50) is greater than 40 µM. The inhibition constant Ki under setting [1] is greater than 40 µM.
With `CC1=CC[C@@](O)(C(C)C)CC1` [(−) -4-terpineol], the IC50 was greater than 40 µM. Moreover, the Ki under setting [1] is greater than 40 µM.
For the compound `CC1=CCC2CC1C2(C)C` (stereo not drawn) [(−)-α-pinene], the concentration for half-maximal inhibition (IC50) was greater than 40 µM. The Ki under setting [1] is greater than 40 µM.
As to `C=C(C)C1CC=C(C)C(=O)C1` (single isomer, unassigned; (-)) [(−)-carvone], the inhibitory constant (Ki) turned out to be 27.2 ± 3.88 µM and the 50% inhibitory concentration (IC50) was 36.2 ± 5.17 µM. For the same compound, the Ki under setting [2] was 27.2 µM.
Consider `C=C(C)[C@H]1CC=C(C)C(=O)C1` [(+)-carvone], for which the half-maximal inhibitory concentration (IC50) is greater than 40 µM. Further, the inhibition constant (Ki) under setting [1] is greater than 40 µM.
For `CC1=CC[C@](O)(C(C)C)CC1` [(+) -4-terpineol], the inhibition constant Ki is 14 ± 0.321 µM and the concentration for half-maximal inhibition (IC50) was 18.7 ± 0.428 µM. Moreover, the Ki under setting [2] came out at 14 µM.

The IC50 is the point on the concentration scale where inhibition reaches its midpoint. A word on the Ki: it is a dissociation constant, usually derived from enzyme kinetics or from competition with a known ligand.
